Several values for one entry are separate records, joined by “and”; a condition that tells them apart may be missing. Identical values can stand only once.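 In this assay, cells in 96-well plates receive the compound at five concentrations for 48 hours. Endpoints are linearly interpolated between the surrounding concentrations. GI50 marks 50% less growth. Definition used: TGI = concentration required for complete inhibition of growth.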 Some results are limits rather than exact numbers.

Assay in all cases: NCI anticancer screen, dose series, 48 h
For assay [1], the system named is MDA-N.
In assay [2] the test system is DMS 114 small cell lung.
The test system of assay [3] is DMS 273 small cell lung.
Assay [4] has as its system LXFL 529 NSCLC.
In assay [5] the test system is SNB-78 CNS.
Assay [6] relates to XF 498 CNS.
In assay [7] the test system is KM20L2 colon.
The test system of assay [8] is HOP-18 NSCLC.
Assay [9] has as its system RXF-631 renal.

Consider `O=C(O)c1ccc(CI)cc1`, for which the TGI in [1] was 34.4 µM.

Turning to `CC(=O)N/N=C1\CC(C)(C)C2CCC1C2` (stereo unspecified), the TGI in assay [2], in assay [3], in assay [4], in assay [5] and in [6] was > 100 µM in each case.

As to `COc1ccc(NC(=O)CC2SC(=Nc3ccccc3C)NC2=O)c([N+](=O)[O-])c1` (stereo unspecified), the TGI in [3], in [7], in assay [4], in assay [5] and in assay [6] was > 100 µM each time.

Take `CC1/C=C/[C@@]2(C)CCC(C(C)(C)O)C2C(O)C[C@](C)(O)/C=C/C1` (stereo partly specified): the TGI in [2], in [3], in [8], in [7], in assay [4] and in [5] was > 100 µM throughout. Further, the TGI in assay [6] is > 100 µM.

As to `Cc1[nH]nc(C(F)(F)F)c1N=NN(C)C`, in assay [1], the TGI was > 100 µM.

As for `O=C1c2ccccc2-[n+]2ccc3c([nH]c4ccccc43)c21`, the TGI in assay [1] was found to be 0.318 µM.

Regarding `O=c1/c(=C/c2ccccc2[N+](=O)[O-])sc2nc3ccccc3n12`, the TGI in assay [2] was 36.8 µM; in assay [3], > 46.4 µM; in [8], > 46.4 µM; in assay [7], > 100 µM; in assay [4], > 46.4 µM; in [9] it was > 46.4 µM. The TGI in [5] is > 46.4 µM; in assay [6], > 59.3 µM.

As to `Cc1ccc(NC(=O)CCc2nc(N)nc(N)c2-c2ccccc2)cc1C`, the TGI in assay [2], in assay [3], in assay [8], in [7], in assay [4] and in assay [9] was > 100 µM in each case. Also, the TGI in [5] and in assay [6] was > 100 µM in each case.

With `C=CCNc1nc2c(s1)C(=O)c1ccccc1C2=O`, the TGI in assay [2] was 3.27 µM; in assay [3] it was 28.2 µM; in assay [8], 23.1 µM; in assay [7], 33.5 µM; in assay [4], 24.2 µM; in assay [1], 3.28 µM. For the same compound, the TGI in assay [5] turned out to be 72.9 µM; in [6], 34.8 µM.

Regarding `CC1CCC2(NC1)OC1CC3C4CC=C5CC(O)CCC5(C)C4CCC3(C)C1C2C` (stereo unspecified), in assay [1], the GI50 is 31.1 µM and 12.2 µM; the TGI is > 100 µM.

Regarding `CC1=Nc2c(ccc3c2C(=O)c2ccccc2C3=O)NC(c2cccc3c2CCC3)C1` (stereo unspecified), the TGI in assay [3], in assay [8], in [7], in assay [4], in assay [9] and in [5] was > 100 µM in each case. Besides, the TGI in [6] was > 100 µM.

In the case of `COc1ccc(OC)c(NC(=O)CCC/C(CC(=O)c2ccc(O)c(OC)c2)=N\Nc2nnc(C)n2N)c1`, the TGI in assay [2], in assay [3], in [8], in assay [7], in assay [4] and in [6] was > 100 µM each time.

As to `O=C1CC2C(=O)c3ccccc3CC2c2ccccc21` (stereo unspecified), in [1], the TGI is > 100 µM.

For the compound `Cc1nn[n-]n1.N.N.N.N.N.[Cl-].[Co+3]`, the GI50 in assay [3], in [8], in assay [7], in [4] and in [5] was > 100 µM in each case. The TGI in [3], in assay [8], in assay [7], in assay [4] and in assay [5] was > 100 µM in each case.

Regarding `CCC1CC2C(=O)N(c3ccccc3)C(=O)C2c2[nH]c3ccccc3c21` (stereo unspecified), the TGI in assay [2] was found to be 35.7 µM; in [8], 45.8 µM; in assay [4], 70.4 µM; in [9], 29.4 µM; in assay [5], 75.1 µM; in assay [6], 42 µM.

As for `COC12CCC(=O)C=C1c1ccccc1N2C(C)=O` (stereo unspecified), the TGI in assay [2], in assay [3], in [8], in assay [7], in assay [4] and in assay [5] was > 100 µM each time. For the same compound, the TGI in [6] is > 100 µM.

Take `CCOC(=O)c1cc2cc3c4c(c2oc1=O)CCCN4CCC3`: the TGI in assay [1] is > 100 µM.

Turning to `CCCNC(=O)C1C(=O)C(=O)N(CCC)C1=O` (stereo unspecified), the TGI in assay [2], in assay [3], in [8], in [7], in [4] and in [5] was > 100 µM each time. The TGI in assay [6] was > 100 µM.

For the compound `C=C(CC(NC(=O)c1ccc(C(CC)Cc2cnc3nc(N)nc(N)c3n2)cc1)C(=O)O)C(=O)O` (stereo unspecified), the TGI in assay [3], in assay [7], in assay [4] and in assay [5] was > 100 µM in each case.

For the compound `O=C(CCC(=O)Nc1ccc(Cl)c(Cl)c1)CC(=O)c1ccc(Br)cc1`, the TGI in assay [2], in assay [8], in [7], in [4], in [9] and in assay [5] was > 100 µM in each case. In addition, the TGI in assay [6] was > 100 µM.

Regarding `CCOC(=O)C1=C(Nc2ccc(Cl)cc2Cl)OCC1=O`, the TGI in [3], in assay [7], in assay [4], in assay [9], in assay [5] and in assay [6] was > 100 µM throughout.

In the case of `CC1=CC(=O)CC2(C)CC[C@@H]3C[C@]12OC3(C)C` (stereo partly specified), the TGI in [2], in assay [3], in [8], in assay [7], in [4] and in assay [5] was > 100 µM in each case. Besides, the TGI in assay [6] was > 100 µM.

In the case of `COC(=O)C1C(O)CCC2CN3CCc4c([nH]c5ccccc45)C3CC21` (stereo unspecified), the TGI in assay [1] was > 100 µM.

The values are drawn from PubChem BioAssay (NCI).
